Test results reported in patent publication US4769483A, “Cycloalkyl-substituted 4-aminophenyl derivatives and process for their preparation” (Farmitalia Carlo Erba, S.p.A., priority 1985, dated 1988).

How the values were obtained:
[1] = molecular target: T1, human placental aromatase (Homo sapiens, UniProt P11511); assay: Inhibition of human placental aromatase in vitro (3H2O release from 4-[1β,2β-3H]androstene-3,17-dione); format: biochemical; conditions: for IC50: microsomal fraction of human placental tissue, 50 nM 4-[3H]androstenedione, 100 μM NADPH, 0.05 mg microsomal proteins, 37° C., pH 7.5, 15 minutes; for Relative potency: versus aminoglutethimide (= 1 by definition)
T1 construct: the enzyme system was isolated from the microsomal fraction of human placental tissue; from tissue; host or cells: human placenta, microsomal fraction
T1 sequence (P11511 1-503): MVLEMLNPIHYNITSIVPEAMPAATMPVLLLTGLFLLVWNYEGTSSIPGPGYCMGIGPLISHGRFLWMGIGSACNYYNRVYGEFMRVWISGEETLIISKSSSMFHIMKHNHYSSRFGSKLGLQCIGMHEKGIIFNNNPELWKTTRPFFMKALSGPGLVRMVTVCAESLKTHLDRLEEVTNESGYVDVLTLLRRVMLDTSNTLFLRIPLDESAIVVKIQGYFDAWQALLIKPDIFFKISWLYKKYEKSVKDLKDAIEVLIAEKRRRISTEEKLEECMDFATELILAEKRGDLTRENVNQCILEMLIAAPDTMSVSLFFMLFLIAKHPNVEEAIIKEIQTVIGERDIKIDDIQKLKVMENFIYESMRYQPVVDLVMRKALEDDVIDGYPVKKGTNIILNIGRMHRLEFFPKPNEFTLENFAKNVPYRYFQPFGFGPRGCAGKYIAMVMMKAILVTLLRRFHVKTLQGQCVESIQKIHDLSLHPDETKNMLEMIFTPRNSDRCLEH
Experimental: The assay of the aromatase inhibition in vitro was carried out as follows: the enzyme system was isolated from the microsomal fraction of human placental tissue according to standard procedure. […] All incubations were carried out in a shaking water bath at 37° C. in air in 10 mM potassium phosphate buffer, pH 7.5, which contained 100 mM KCl, 1 mM EDTA and 1 mM dithiothreitol.
The experiments were carried out in 1 ml incubation volume containing 50 nM 4-[^3 H]androstenedione, various concentrations of the inhibitors, 100 μM NADPH and 0.05 mg of microsomal proteins. After 15 minutes of incubation the reaction was stopped by the addition of choroform (5 ml).
After centrifugation at 1500 ×g for 5 minutes aliquots (0.5 ml) were removed from the water phase for determination of ^3 H2 O formed.

aromatase = conditions: literature reports; cited from earlier work

SMILES | IC50 [1] | Relative potency [1] | aromatase-inhibiting action (in words) (aromatase)
Nc1ccc(C2CCCCC2)cc1 [4-cyclohexylaniline] | 1220 nM | 1.7 | more or less selective aromatase-inhibiting action
CCC1(c2ccncc2)CCC(=O)NC1=O (centres unmarked) [4-pyridyl-3-ethyl-2,6-piperidinedione] |  |  | more or less selective aromatase-inhibiting action
C[C@@H](C(=O)OC1CCCCC1)c1ccc(N)cc1 [FCE 24328, cyclohexyl 2-(R)-2-(4'-aminophenyl)propionate] | 100 nM | 21.2 | 
C[C@@H](C(=O)NC1CCCCC1)c1ccc(N)cc1 [FCE 24786, N-cyclohexyl-2-(R)-2-(4'-aminophenyl)propanamide] | 130 nM | 16.3 | 
